Broadly, the IC50 is the concentration at which inhibition is half-maximal.

The target of this assay is T1, BACE2 (Homo sapiens, UniProt Q9Y5Z0).
T1 construct: BACE2 enzyme ectodomain (derived from plasmid “pET17b-T7-hu proBACE2”) was prepared as described in Ostermann et al; T7 tag (N); made in house
T1 sequence (Q9Y5Z0 21-473 limits assumed): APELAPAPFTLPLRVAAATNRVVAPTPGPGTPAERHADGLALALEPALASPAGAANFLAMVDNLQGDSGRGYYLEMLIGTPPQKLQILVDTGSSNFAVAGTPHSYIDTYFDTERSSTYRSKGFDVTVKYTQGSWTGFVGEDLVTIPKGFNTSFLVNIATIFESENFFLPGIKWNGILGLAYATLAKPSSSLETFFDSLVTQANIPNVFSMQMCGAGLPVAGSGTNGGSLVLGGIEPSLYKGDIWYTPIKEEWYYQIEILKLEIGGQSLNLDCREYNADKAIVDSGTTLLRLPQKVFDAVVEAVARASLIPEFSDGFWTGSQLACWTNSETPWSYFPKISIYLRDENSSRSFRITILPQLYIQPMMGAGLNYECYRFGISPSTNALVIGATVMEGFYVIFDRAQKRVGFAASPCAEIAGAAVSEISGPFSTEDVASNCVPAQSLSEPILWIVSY
In words: Fluorescent-peptide cleavage assay for BACE2 inhibition. The settings on record: BACE2 enzyme ectodomain, fluorescent peptide WS EVNLD AEFRC-MR121, assay buffer pH 4.5, room temperature. Type of assay: biochemical. As to the method:
Fluorescent-Peptide Cleavage Assay for BACE2 Inhibition
The pro-enzyme was stored at 4° C. at a concentration of 70 μg/ml.
A fluorescent peptide with the amino acid sequence WS EVNLD AEFRC-MR121 was synthesised and a stock solution of 1.5 mM in DMSO prepared and stored at −20° C. MR121 is a fluorophore with an excitation wavelength of 630 nm and emission wavelength of 695 nm. The MR121 fluorescence is quenched by the N-terminal tryptophan until the peptide is cleaved by BACE2.
Assays were all made in a Corning 384-well black polystyrene non-binding surface microtitre plate with clear flat bottom and using a Plate:Vision (Perkin Elmer) fluorescence reader. To perform the assay an 80 nM solution of BACE2 was prepared in assay buffer (assay buffer is 100 mM Na-acetate; 20 mM EDTA; 0.05% BSA; pH 4.5) and incubated at room temperature for 1 hour to activate the enzyme. 39 μl of the activated BACE2 was placed in each assay well, followed by 1 μl compound to be tested at an appropriate concentration in 100% DMSO. The plate was then mixed and incubated for 10 minutes at room temperature.
The assay readout is the rate of change of fluorescence intensity giving a relative measure of BACE2 activity. Small values correspond to high inhibition and larger values to low inhibition. […] IC50 values were determined using these assay values generated for a range of inhibitor concentrations and the curve fitting software XLfit (IDBS) using the Sigmoidal Dose-Response Model.

For the compound `CN1C(=O)C[C@@](C)(c2cccc(NC(=O)c3nc(Cl)ccc3Cl)c2)N=C1N` [Example 54, 3,6-Dichloro-pyridine-2-carboxylic acid [3-((S)-2-amino-1,4-dimethyl-6-oxo-1,4,5,6-tetrahydro-pyrimidin-4-yl)-phenyl]-amide], the IC50 worked out at 0.976 µM.

As for `CN1C(=O)C[C@@](C)(c2cccc(NC(=O)c3ccn(C)n3)c2)N=C1N` [Example 69, 1-Methyl-1H-pyrazole-3-carboxylic acid [3-((S)-2-amino-1,4-dimethyl-6-oxo-1,4,5,6-tetrahydro-pyrimidin-4-yl)-phenyl]-amide], the midpoint of inhibition, the IC50, lay at 0.061 µM.

As for `Cc1cc(C(=O)Nc2cccc([C@]3(C)CC(=O)N(C)C(N)=N3)c2)n(C)n1` [Example 8, 2,5-Dimethyl-2H-pyrazole-3-carboxylic acid [3-((S)-2-amino-1,4-dimethyl-6-oxo-1,4,5,6-tetrahydro-pyrimidin-4-yl)-phenyl]amide], the IC50 is 0.126 µM.

The compound `CN1C(=O)C[C@@](C)(c2cccc(NC(=O)c3ccc(-n4ccc(C(F)(F)F)n4)cn3)c2)N=C1N` [Example 76, 5-(3-Trifluoromethyl-pyrazol-1-yl)-pyridine-2-carboxylic acid [3-((S)-2-amino-1,4-dimethyl-6-oxo-1,4,5,6-tetrahydro-pyrimidin-4-yl)-phenyl]-amide] registered an IC50 of 0.3 µM.

In turn, `Cc1cnc(C(=O)Nc2cccc([C@]3(C)CC(=O)N(C)C(N)=N3)c2)[nH]1` [Example 84, 4-Methyl-1H-imidazole-2-carboxylic acid [3-((S)-2-amino-1,4-dimethyl-6-oxo-1,4,5,6-tetrahydro-pyrimidin-4-yl)-phenyl]-amide] gave an IC50 of 0.39 µM.

Regarding `CN1C(=O)C(C)(C)[C@@](C)(c2cccc(NC(=O)c3ccc(Cl)cn3)c2)N=C1N` [Example 94, 5-Chloro-pyridine-2-carboxylic acid [3-((R)-2-amino-1,4,5,5-tetramethyl-6-oxo-1,4,5,6-tetrahydro-pyrimidin-4-yl)-phenyl]amide], the IC50 amounted to 0.02 µM.

As to `CCC[C@@]1(c2cccc(NC(=O)c3ccc(Cl)cn3)c2)CC(=O)N(C)C(N)=N1` [Example 87, 5-Chloro-pyridine-2-carboxylic acid [3-((S)-2-amino-1-methyl-6-oxo-4-propyl-1,4,5,6-tetrahydro-pyrimidin-4-yl)-phenyl]-amide], 0.17 µM corresponded to half-maximal inhibition (IC50).

The compound `CC[C@H]1C(=O)N(C)C(N)=N[C@]1(C)c1cccc(NC(=O)c2ccc(Cl)cn2)c1` [Example 92, 5-Chloro-pyridine-2-carboxylic acid [3-((4S,5R)-2-amino-5-ethyl-1,4-dimethyl-6-oxo-1,4,5,6-tetrahydro-pyrimidin-4-yl)-phenyl]-amide] yielded an IC50 of 0.024 µM.

`COc1ccc(C(=O)Nc2ccc(F)c([C@@]3(C)N=C(N)N(C)C(=O)C3(C)C)c2)nc1` [Example 113, 5-Methoxy-pyridine-2-carboxylic acid [3-((S)-2-amino-1,4,5,5-tetramethyl-6-oxo-1,4,5,6-tetrahydro-pyrimidin-4-yl)-4-fluoro-phenyl]amide] had an IC50 of 0.021 µM.

The compound `CN1C(=O)C(C)(C)[C@@](C)(c2cc(NC(=O)c3nc(Cl)ccc3C(F)(F)F)ccc2F)N=C1N` [Example 119, 6-Chloro-3-trifluoromethyl-pyridine-2-carboxylic acid [3-((S)-2-amino-1,4,5,5-tetramethyl-6-oxo-1,4,5,6-tetrahydro-pyrimidin-4-yl)-4-fluoro-phenyl]amide] displayed an IC50 of 0.56 µM.

Take `Cc1cccc(C(=O)Nc2cccc([C@]3(C)CC(=O)N(C)C(N)=N3)c2)n1` [Example 32, 6-Methyl-pyridine-2-carboxylic acid [3-((S)-2-amino-1,4-dimethyl-6-oxo-1,4,5,6-tetrahydro-pyrimidin-4-yl)-phenyl]-amide]: the IC50 is 0.22 µM.

`Cc1ncc(C(=O)Nc2cccc([C@]3(C)CC(=O)N(C)C(N)=N3)c2)cn1` [Example 35, 2-Methyl-pyrimidine-5-carboxylic acid [3-((S)-2-amino-1,4-dimethyl-6-oxo-1,4,5,6-tetrahydro-pyrimidin-4-yl)-phenyl]-amide] yielded an IC50 of 6.42 µM.

With `CN1C(=O)C(C)(C)[C@@](C)(c2cc(NC(=O)c3ncoc3-c3ccccc3)ccc2F)N=C1N` [Example 109, 5-Phenyl-oxazole-4-carboxylic acid [3-((S)-2-amino-1,4,5,5-tetramethyl-6-oxo-1,4,5,6-tetrahydro-pyrimidin-4-yl)-4-fluoro-phenyl]amide], the IC50 stood at 0.17 µM.

In the case of `Cc1ccc(C(=O)Nc2ccc(F)c([C@@]3(C)N=C(N)N(C)C(=O)C3(C)C)c2)s1` [Example 102, 5-Methyl-thiophene-2-carboxylic acid [3-((S)-2-amino-1,4,5,5-tetramethyl-6-oxo-1,4,5,6-tetrahydro-pyrimidin-4-yl)-4-fluoro-phenyl]amide], half-maximal inhibition (IC50) was put at 0.052 µM.

For `CN1C(=O)C(C)(C)[C@@](C)(c2cc(NC(=O)c3ncccc3F)ccc2F)N=C1N` [Example 108, 3-Fluoro-pyridine-2-carboxylic acid [3-((S)-2-amino-1,4,5,5-tetramethyl-6-oxo-1,4,5,6-tetrahydro-pyrimidin-4-yl)-4-fluoro-phenyl]amide], the IC50 is 0.028 µM.

`Cc1nc(C(=O)Nc2cccc([C@]3(C)CC(=O)N(C)C(N)=N3)c2)c(C)o1` [Example 4, 2,5-Dimethyl-oxazole-4-carboxylic acid [3-((S)-2-amino-1,4-dimethyl-6-oxo-1,4,5,6-tetrahydro-pyrimidin-4-yl)-phenyl]amide] returned an IC50 of 0.098 µM.

In turn, `Cc1cncc(C(=O)Nc2cccc([C@]3(C)CC(=O)N(C)C(N)=N3)c2)n1` [Example 24, 6-Methyl-pyrazine-2-carboxylic acid [3-((S)-2-amino-1,4-dimethyl-6-oxo-1,4,5,6-tetrahydro-pyrimidin-4-yl)-phenyl]amide] returned an IC50 of 0.217 µM.

The compound `Cc1nc(C(=O)Nc2ccc(F)c([C@@]3(C)N=C(N)N(C)C(=O)C3(C)C)c2)co1` [Example 101, 2-Methyl-oxazole-4-carboxylic acid [3-((S)-2-amino-1,4,5,5-tetramethyl-6-oxo-1,4,5,6-tetrahydro-pyrimidin-4-yl)-4-fluoro-phenyl]amide] displayed an IC50 of 0.021 µM.

In turn, `CC[C@@]1(c2cccc(NC(=O)c3ccc(C(F)(F)F)cn3)c2)CC(=O)N(C)C(N)=N1` [Example 86, 5-Trifluoromethyl-pyridine-2-carboxylic acid [3-((S)-2-amino-4-ethyl-1-methyl-6-oxo-1,4,5,6-tetrahydro-pyrimidin-4-yl)-phenyl]amide] showed an IC50 of 0.25 µM.

`CN1C(=O)C(C)(C)[C@@](C)(c2cc(NC(=O)c3ccn(C(F)F)n3)ccc2F)N=C1N` [Example 121, 1-Difluoromethyl-1H-pyrazole-3-carboxylic acid [3-((S)-2-amino-1,4,5,5-tetramethyl-6-oxo-1,4,5,6-tetrahydro-pyrimidin-4-yl)-4-fluoro-phenyl]amide] displayed an IC50 of 0.017 µM.

In the case of `CCC[C@@]1(c2cccc(NC(=O)c3ccn(C)n3)c2)CC(=O)N(C)C(N)=N1` [Example 89, 1-Methyl-1H-pyrazole-3-carboxylic acid [3-((S)-2-amino-1-methyl-6-oxo-4-propyl-1,4,5,6-tetrahydro-pyrimidin-4-yl)-phenyl]-amide], half-maximal inhibition (IC50) required 4.75 µM.

`CCC[C@@]1(c2cccc(NC(=O)c3coc(C)n3)c2)CC(=O)N(C)C(N)=N1` [Example 90, 2-Methyl-oxazole-4-carboxylic acid [3-((S)-2-amino-1-methyl-6-oxo-4-propyl-1,4,5,6-tetrahydro-pyrimidin-4-yl)-phenyl]-amide] registered an IC50 of 1.11 µM.

In turn, `CN1C(=O)C[C@@](C)(c2cc(NC(=O)c3ccccn3)ccc2F)N=C1N` [Example 47, Pyridine-2-carboxylic acid [3-((S)-2-amino-1,4-dimethyl-6-oxo-1,4,5,6-tetrahydro-pyrimidin-4-yl)-4-fluoro-phenyl]amide] had an IC50 of 0.008 µM.

Turning to `CCc1ccc(C(=O)Nc2cccc([C@]3(C)CC(=O)N(C)C(N)=N3)c2)nc1` [Example 83, 5-Ethyl-pyridine-2-carboxylic acid [3-((S)-2-amino-1,4-dimethyl-6-oxo-1,4,5,6-tetrahydro-pyrimidin-4-yl)-phenyl]-amide], the IC50 was found to be 0.04 µM.

For the origin of these results see US8461160B2, “Dihydropyrimidinones” (Hoffmann-La Roche, Inc., priority 2009, dated 2013).
